ChEMBL document CHEMBL1201862, “PubChem BioAssay data set” (2004)
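1) Cells in 96-well plates. 2) Compound, 48 h, 5 concentrations. 3) Linear interpolation between surrounding doses. 4) Unreached endpoint = highest concentration. Abbreviation: GI50, concentration required for 50% inhibition of growth.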 The source made the active and inactive calls. Cut-off read from the data, not from the text of the source: active = GI50 up to about 1.1 µM and inactive = higher.

Key:
Assay in all cases: growth of human tumour cells (NCI), 48 h
NCI-H460 = test system: NCI-H460
HT-29 = test system: HT-29
HCT-15 = test system: HCT-15
786-0 = test system: 786-0
K562 = test system: K562
RPMI-8226 = test system: RPMI-8226
COLO 205 = test system: COLO 205
HOP-62 = test system: HOP-62
SNB-19 = test system: SNB-19
LOX IMVI = test system: LOX IMVI
HL-60 = test system: HL-60
SF-295 = test system: SF-295
U-251 = test system: U-251
SN12C = test system: SN12C
SR = test system: SR
CCRF-CEM = test system: CCRF-CEM

Row | SMILES | GI50 (NCI-H460) | GI50 (HT-29) | GI50 (HCT-15) | GI50 (786-0) | GI50 (K562) | GI50 (RPMI-8226) | GI50 (COLO 205) | GI50 (HOP-62) | GI50 (SNB-19) | GI50 (LOX IMVI) | GI50 (HL-60) | GI50 (SF-295) | GI50 (U-251) | GI50 (SN12C) | GI50 (SR) | GI50 (CCRF-CEM)
1 | Cc1ccc(/C=C/C(=O)CCN(C)C)cc1 | 21.8 µM (inactive) | 18.2 µM (inactive) | 15.5 µM | 17.9 µM (inactive) | 32 µM (inactive) | 19.3 µM (inactive) | 16 µM (inactive) | 54.5 µM (inactive) | 26.3 µM (inactive) | 16.3 µM (inactive) | 21.1 µM (inactive) | 33 µM (inactive) | 16.3 µM (inactive) | 16.9 µM (inactive) | 21.4 µM (inactive) | 24.7 µM (inactive)
2 | CC(C)(c1ccccc1)c1ccc(OC#N)cc1 | 38.5 µM (inactive) | > 70.3 µM (inactive) | 15.2 µM | > 58.1 µM (inactive) | 37.8 µM (inactive) | 34.1 µM (inactive) | > 41.3 µM (inactive) | > 100 µM (inactive) | > 78 µM (inactive) | > 41 µM (inactive) | 36.4 µM (inactive) | 60.8 µM (inactive) | 47.2 µM (inactive) | 60.5 µM (inactive) | 19.2 µM (inactive) | 40.6 µM (inactive)
3 | O=C1C(=Cc2ccc([N+](=O)[O-])o2)C(=O)N(CCc2ccccc2)S(=O)(=O)N1CCc1ccccc1 | > 100 µM (inactive) | 33.5 µM (inactive) | 16.3 µM | 20.3 µM (inactive) | 37 µM (inactive) | 27.4 µM (inactive) | 20.2 µM (inactive) |  | > 100 µM (inactive) | 18.7 µM (inactive) | 12.6 µM (inactive) | > 100 µM (inactive) | > 100 µM (inactive) | 50.4 µM (inactive) | 14.3 µM (inactive) | 27.7 µM (inactive)
4 | CN1N=C2NCCNC3=NN(C)/C(=N/CC/N=C/1S2)S3 | > 100 µM (inactive) | > 100 µM (inactive) | > 100 µM | > 100 µM (inactive) | > 100 µM (inactive) | > 100 µM (inactive) | > 100 µM (inactive) | > 100 µM (inactive) | > 100 µM (inactive) | > 100 µM (inactive) | > 100 µM (inactive) | > 100 µM (inactive) | > 100 µM (inactive) | > 100 µM (inactive) | > 100 µM (inactive) | > 100 µM (inactive)
5 | COC(=O)C(C#N)=C1c2ccccc2Oc2ccccc21 | > 100 µM (inactive) | 39.3 µM (inactive) | > 100 µM | 63.7 µM (inactive) | 31.5 µM (inactive) | 18.8 µM (inactive) | 92 µM (inactive) | > 100 µM (inactive) | 41.6 µM (inactive) | > 100 µM (inactive) | 20.8 µM (inactive) | 46.5 µM (inactive) |  | 38.9 µM (inactive) |  | 32.4 µM (inactive)
6 | CCN(CC)CCC1CC/C(=C\c2ccc(OC)cc2)C1=O (stereo unspecified) |  | 39.3 µM (inactive) | 38.7 µM | > 100 µM (inactive) | 40 µM (inactive) | 40.9 µM (inactive) | 18 µM (inactive) | > 100 µM (inactive) | > 100 µM (inactive) | > 100 µM (inactive) | 47.8 µM (inactive) | > 100 µM (inactive) | > 100 µM (inactive) | > 100 µM (inactive) | 55.8 µM (inactive) | > 100 µM (inactive)
7 | COc1cccc2c1C(=O)c1c(O)c3c(c(O)c1C2=O)C[C@@](O)(C(C)=O)C[C@@H]3OC1CC([N+]([O-])(Cc2ccccc2)Cc2ccccc2)C(O)C(C)O1 (stereo partly specified) | 0.71 µM (active) | 1.52 µM (inactive) | 1.32 µM | 1.44 µM (inactive) | 1.7 µM (inactive) | 1.54 µM (inactive) |  | 1.56 µM (inactive) | 2.13 µM (inactive) | 1.02 µM (active) | 1.42 µM (inactive) | 1.19 µM (inactive) | 1.24 µM (inactive) | 1.06 µM (active) | 0.179 µM (active) | 0.399 µM (active)
8 | NC(=O)CC(N/C=C1/N=C(c2ccccc2)OC1=O)C(=O)O (stereo unspecified) | > 100 µM (inactive) | > 100 µM (inactive) | > 100 µM | > 100 µM (inactive) | > 100 µM (inactive) | > 100 µM (inactive) | > 100 µM (inactive) | > 100 µM (inactive) | > 100 µM (inactive) | > 100 µM (inactive) | > 100 µM (inactive) | > 100 µM (inactive) | > 100 µM (inactive) |  |  | > 100 µM (inactive)
9 | C=C[C@@]1(O)CCCC2=C(C(=O)OCC)CC[C@]21C | > 100 µM (inactive) | 64.4 µM (inactive) | > 100 µM | > 100 µM (inactive) | 30.8 µM (inactive) | > 100 µM (inactive) | > 100 µM (inactive) |  | 47.5 µM (inactive) |  | 36.1 µM (inactive) | > 100 µM (inactive) | > 100 µM (inactive) | > 100 µM (inactive) | 54.1 µM (inactive) | 44.7 µM (inactive)
10 | COc1cc2c(cc1O)[C@@]1(Cc3ccc(OC)c(OC)c3)CCC(=O)N1CC2 | > 100 µM (inactive) | > 100 µM (inactive) | > 100 µM | > 100 µM (inactive) | > 100 µM (inactive) | > 100 µM (inactive) | > 100 µM (inactive) | > 100 µM (inactive) | > 100 µM (inactive) | > 100 µM (inactive) | > 100 µM (inactive) | > 100 µM (inactive) |  | > 100 µM (inactive) | 61.8 µM (inactive) | > 100 µM (inactive)
11 | O=c1ccn([C@@H]2C[C@H](CO)C[S+]([O-])C2)c(=O)[nH]1 (stereo partly specified) | > 100 µM (inactive) | > 100 µM (inactive) | > 100 µM | > 100 µM (inactive) | > 100 µM (inactive) | > 100 µM (inactive) | > 100 µM (inactive) | > 100 µM (inactive) | > 100 µM (inactive) | > 100 µM (inactive) | > 100 µM (inactive) | > 100 µM (inactive) | > 100 µM (inactive) | > 100 µM (inactive) |  | > 100 µM (inactive)
12 | CN(CCCCN)c1ccc2c(=O)[nH][nH]c(=O)c2c1 | > 100 µM (inactive) | > 100 µM (inactive) | > 100 µM | > 100 µM (inactive) | > 100 µM (inactive) | > 100 µM (inactive) | > 100 µM (inactive) | > 100 µM (inactive) | > 10 µM (inactive) | > 100 µM (inactive) | > 100 µM (inactive) | > 100 µM (inactive) | > 100 µM (inactive) | > 100 µM (inactive) |  | > 100 µM (inactive)
13 | O=C1c2ccccc2C(=O)c2c1cc(S(=O)(=O)O)c(O)c2O [Alizarin Red S] | > 100 µM (inactive) | > 100 µM (inactive) | > 100 µM | > 100 µM (inactive) | > 100 µM (inactive) | > 100 µM (inactive) | > 100 µM (inactive) | > 100 µM (inactive) | > 10 µM (inactive) | > 100 µM (inactive) |  | > 100 µM (inactive) | > 100 µM (inactive) | > 100 µM (inactive) | > 100 µM (inactive) | > 100 µM (inactive)
14 | COc1cc(C)c(O)c(C(=O)O)c1 | > 100 µM (inactive) | > 100 µM (inactive) | > 100 µM | > 100 µM (inactive) | > 100 µM (inactive) |  | > 100 µM (inactive) | > 100 µM (inactive) | > 100 µM (inactive) | > 100 µM (inactive) |  | > 100 µM (inactive) | > 100 µM (inactive) | > 100 µM (inactive) | > 100 µM (inactive) | > 100 µM (inactive)
15 | C=CC1(NS(=O)(=O)c2ccc(C)cc2)CCC(C(C)(C)C)CC1 (stereo unspecified) | > 100 µM (inactive) |  | > 100 µM | 46.8 µM (inactive) | > 100 µM (inactive) | 17.5 µM (inactive) | > 100 µM (inactive) | 57.7 µM (inactive) | 36.6 µM (inactive) |  | 70.1 µM (inactive) |  | 35.6 µM (inactive) | > 100 µM (inactive) | 56 µM (inactive) | > 100 µM (inactive)
16 | CC1CCN(CCC(=O)CC(c2ccccc2)c2c(O)c3ccccc3oc2=O)CC1 (stereo unspecified) | > 100 µM (inactive) | > 100 µM (inactive) | > 100 µM | > 100 µM (inactive) | > 100 µM (inactive) | > 100 µM (inactive) | > 100 µM (inactive) | > 100 µM (inactive) | > 100 µM (inactive) | > 100 µM (inactive) | > 100 µM (inactive) | > 100 µM (inactive) | > 100 µM (inactive) |  | > 100 µM (inactive) | > 100 µM (inactive)
17 | CCOC(=O)Oc1c(OC)cc(C(=O)NC2CCc3cc(OC)c(OC)c(OC)c3-c3ccc(SC)c(=O)cc32)cc1OC (stereo unspecified) | 0.164 µM (active) | 0.0484 µM (active) | 0.445 µM | 0.239 µM (active) | < 0.007 µM (active) |  | 0.0439 µM (active) | 0.601 µM (active) | 0.324 µM (active) | 0.0466 µM (active) | < 0.007 µM (active) | 0.145 µM (active) | 0.0346 µM (active) | 0.0542 µM (active) | < 0.007 µM (active) | < 0.007 µM (active)
18 | O=C1CCCN(c2ccccc2)N1 | > 100 µM (inactive) | > 100 µM (inactive) | > 100 µM | > 100 µM (inactive) | > 100 µM (inactive) | > 100 µM (inactive) |  | > 100 µM (inactive) | > 100 µM (inactive) | > 100 µM (inactive) | > 100 µM (inactive) | > 100 µM (inactive) | > 100 µM (inactive) | > 100 µM (inactive) | > 100 µM (inactive) | 
19 | COc1cc([C@@H]2c3cc4c(cc3C(N)C3COC(=O)[C@@H]32)OCO4)cc(OC)c1O (stereo partly specified) | 0.304 µM (active) | 0.232 µM (active) | 0.324 µM | 0.537 µM (active) | 0.225 µM (active) | 0.277 µM (active) | 0.13 µM (active) | 2.88 µM (inactive) | 0.17 µM (active) | 0.241 µM (active) | 0.19 µM (active) | 0.0624 µM (active) |  | 0.445 µM (active) | 0.0857 µM (active) | 0.339 µM (active)
